From US20020137929A1, “1 - (3-heterocyclylphenyl) isothiourea, -isourea, -guanidine and -amidine herbicidal agents” (Intellectual Property Department, BASF Aktiengesellschaft, priority 1998, published 2002)

Legend:
ABUTH (Velvetleaf) = assay: Postemergence herbicidal evaluation; format: in vivo, Abutilon theophrasti; conditions: postemergence
Method in brief: (§1)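 Two-week seedlings sprayed postemergence at 40 psi; formulation: 1:1 acetone/water, 0.5% TWEEN 20; application ≈0.0156–0.500 kg/ha. Greenhouse grow-out, then 0–9 visual scoring at 4–5 weeks.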

AMBEL (Ragweed, Common) = assay: Postemergence herbicidal evaluation; format: in vivo, Ambrosia artemisifolia; conditions: postemergence
Method in brief: as §1

[1] = system: IPOHE (Morningglory, Ivyleaf); assay: Postemergence herbicidal evaluation; format: in vivo, Ipomoea hederacea; conditions: postemergence
Method in brief: as §1

ECHCG (Barnyardgrass) [2] = assay: Postemergence herbicidal evaluation; format: in vivo, Echinochloa crus-galli; conditions: postemergence
Method in brief: as §1

SETVI (Foxtail, Green) = assay: Postemergence herbicidal evaluation; format: in vivo, Setaria viridis; conditions: postemergence
Method in brief: as §1

[3] = system: GLXMAW (Soybean, Williams); assay: Postemergence herbicidal evaluation; format: in vivo, Glycine max, (L.) Merr. cv Williams; conditions: postemergence
Method in brief: as §1

[4] = system: TRZAWR (Wheat, Winter, cv Riband); assay: Postemergence herbicidal evaluation; format: in vivo, Triticum aestivum; conditions: postemergence
Method in brief: as §1

CASOB (Sicklepod) = assay: Preemergence herbicidal evaluation; format: in vivo, Cassia obtusifolia; conditions: rated 4-5 weeks after treatment, rating scale 0-9
Method in brief: (§2)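 In this greenhouse assay, monocot and dicot seeds are planted in soil and treated prior to emergence with an aqueous acetone spray (about 0.0156-0.500 kg/ha). Plants are assessed visually against control on a 0-9 scale after 4-5 weeks.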

[5] = system: CHEAL (Lambsquarters, Common); assay: Preemergence herbicidal evaluation; format: in vivo, Chenopodium album; conditions: rated 4-5 weeks after treatment, rating scale 0-9
Method in brief: as §2

GALAP (Galium) = assay: Preemergence herbicidal evaluation; format: in vivo, Galium aparine; conditions: rated 4-5 weeks after treatment, rating scale 0-9
Method in brief: as §2

[6] = system: IPOHE (Morningglory, Ivyleaf); assay: Preemergence herbicidal evaluation; format: in vivo, Ipomoea hederacea; conditions: rated 4-5 weeks after treatment, rating scale 0-9
Method in brief: as §2

ECHCG (Barnyardgrass) [7] = assay: Preemergence herbicidal evaluation; format: in vivo, Echinochloa crus-galli; conditions: rated 4-5 weeks after treatment, rating scale 0-9
Method in brief: as §2

ZEAMX (Corn, Field) = assay: Preemergence herbicidal evaluation; format: in vivo, Zea mays; conditions: rated 4-5 weeks after treatment, rating scale 0-9
Method in brief: as §2

COc1ccc(CN2C(=O)CSC2=Nc2cc(-n3c(=O)cc(C(F)(F)F)n(C)c3=O)c(F)cc2Cl)cc1OC [Compound 134, 3-{4-Chloro-5-{[3-(3,4-dimethoxybenzyl)-4-oxo-2-thiazolidinylidene]amino}-2-fluorophenyl}-1-methyl-6-(trifluoromethyl)-2,4(1H,3H)-pyrimidinedione]
herbicidal rating ABUTH (ABUTH (Velvetleaf); rate 0.0156 kg/ha): 5.0
herbicidal rating ABUTH (ABUTH (Velvetleaf); rate 0.0313 kg/ha): 7.0
herbicidal rating ABUTH (ABUTH (Velvetleaf); rate 0.0625 kg/ha): 9.0
herbicidal rating AMBEL (AMBEL (Ragweed, Common); rate 0.0156 kg/ha): 3.0
herbicidal rating AMBEL (AMBEL (Ragweed, Common); rate 0.0313 kg/ha): 4.0
herbicidal rating AMBEL (AMBEL (Ragweed, Common); rate 0.0625 kg/ha): 7.0
herbicidal rating IPOHE ([1]; rate 0.0156 kg/ha): 3.0
herbicidal rating IPOHE ([1]; rate 0.0313 kg/ha): 9.0
herbicidal rating IPOHE ([1]; rate 0.0625 kg/ha): 9.0
herbicidal rating ECHCG (ECHCG (Barnyardgrass) [2]; rate 0.0156 kg/ha): 0.0
herbicidal rating ECHCG (ECHCG (Barnyardgrass) [2]; rate 0.0313 kg/ha): 2.0
herbicidal rating ECHCG (ECHCG (Barnyardgrass) [2]; rate 0.0625 kg/ha): 1.0
herbicidal rating SETVI (SETVI (Foxtail, Green); rate 0.0156 kg/ha): 0.0
herbicidal rating SETVI (SETVI (Foxtail, Green); rate 0.0313 kg/ha): 0.0
herbicidal rating SETVI (SETVI (Foxtail, Green); rate 0.0625 kg/ha): 1.0
herbicidal rating GLXMAW ([3]; rate 0.0156 kg/ha): 3.5
herbicidal rating GLXMAW ([3]; rate 0.0313 kg/ha): 4.0
herbicidal rating GLXMAW ([3]; rate 0.0625 kg/ha): 5.0
herbicidal rating TRZAWR ([4]; rate 0.0156 kg/ha): 2.5
herbicidal rating TRZAWR ([4]; rate 0.0313 kg/ha): 3.5
herbicidal rating TRZAWR ([4]; rate 0.0625 kg/ha): 4.0
Preemergence herbicidal rating CASOB (CASOB (Sicklepod); rate 0.1250 kg/ha): 0.0
Preemergence herbicidal rating CASOB (CASOB (Sicklepod); rate 0.2500 kg/ha): 1.0
Preemergence herbicidal rating CHEAL ([5]; rate 0.1250 kg/ha): 9.0
Preemergence herbicidal rating CHEAL ([5]; rate 0.2500 kg/ha): 9.0
Preemergence herbicidal rating GALAP (GALAP (Galium); rate 0.1250 kg/ha): 1.0
Preemergence herbicidal rating GALAP (GALAP (Galium); rate 0.2500 kg/ha): 0.0
Preemergence herbicidal rating IPOHE ([6]; rate 0.1250 kg/ha): 0.0
Preemergence herbicidal rating IPOHE ([6]; rate 0.2500 kg/ha): 0.0
Preemergence herbicidal rating ECHCG (ECHCG (Barnyardgrass) [7]; rate 0.1250 kg/ha): 0.0
Preemergence herbicidal rating ECHCG (ECHCG (Barnyardgrass) [7]; rate 0.2500 kg/ha): 0.0
Preemergence herbicidal rating ZEAMX (ZEAMX (Corn, Field); rate 0.1250 kg/ha): 0.0
Preemergence herbicidal rating ZEAMX (ZEAMX (Corn, Field); rate 0.2500 kg/ha): 0.0

Cn1c(C(F)(F)F)cc(=O)n(-c2cc(N=C3SCC(=O)N3Cc3ccc(S(N)(=O)=O)cc3)c(Cl)cc2F)c1=O [Compound 135, Alpha-{2-{{2-chloro-5-[3,6-dihydro-3-methyl-2,6-dioxo-4-(trifluoromethyl)-1(2H)-pyrimidinyl]-4-fluorophenyl}imino}-4-oxo-3-thiazolidinyl}-p-toluenesulfonamide]
herbicidal rating ABUTH (ABUTH (Velvetleaf); rate 0.0156 kg/ha): 4.0
herbicidal rating ABUTH (ABUTH (Velvetleaf); rate 0.0313 kg/ha): 9.0
herbicidal rating ABUTH (ABUTH (Velvetleaf); rate 0.0625 kg/ha): 9.0
herbicidal rating AMBEL (AMBEL (Ragweed, Common); rate 0.0156 kg/ha): 9.0
herbicidal rating AMBEL (AMBEL (Ragweed, Common); rate 0.0313 kg/ha): 9.0
herbicidal rating AMBEL (AMBEL (Ragweed, Common); rate 0.0625 kg/ha): 9.0
herbicidal rating IPOHE ([1]; rate 0.0156 kg/ha): 9.0
herbicidal rating IPOHE ([1]; rate 0.0313 kg/ha): 9.0
herbicidal rating IPOHE ([1]; rate 0.0625 kg/ha): 9.0
herbicidal rating ECHCG (ECHCG (Barnyardgrass) [2]; rate 0.0156 kg/ha): 1.0
herbicidal rating ECHCG (ECHCG (Barnyardgrass) [2]; rate 0.0313 kg/ha): 2.0
herbicidal rating ECHCG (ECHCG (Barnyardgrass) [2]; rate 0.0625 kg/ha): 2.0
herbicidal rating SETVI (SETVI (Foxtail, Green); rate 0.0156 kg/ha): 2.0
herbicidal rating SETVI (SETVI (Foxtail, Green); rate 0.0313 kg/ha): 4.0
herbicidal rating SETVI (SETVI (Foxtail, Green); rate 0.0625 kg/ha): 6.0
herbicidal rating GLXMAW ([3]; rate 0.0156 kg/ha): 5.0
herbicidal rating GLXMAW ([3]; rate 0.0313 kg/ha): 5.0
herbicidal rating GLXMAW ([3]; rate 0.0625 kg/ha): 5.0
herbicidal rating TRZAWR ([4]; rate 0.0156 kg/ha): 2.5
herbicidal rating TRZAWR ([4]; rate 0.0313 kg/ha): 2.5
herbicidal rating TRZAWR ([4]; rate 0.0625 kg/ha): 3.0
Preemergence herbicidal rating CASOB (CASOB (Sicklepod); rate 0.0156 kg/ha): 0.0
Preemergence herbicidal rating CASOB (CASOB (Sicklepod); rate 0.0313 kg/ha): 1.0
Preemergence herbicidal rating CASOB (CASOB (Sicklepod); rate 0.0625 kg/ha): 1.0
Preemergence herbicidal rating CASOB (CASOB (Sicklepod); rate 0.1250 kg/ha): 1.0
Preemergence herbicidal rating CASOB (CASOB (Sicklepod); rate 0.2500 kg/ha): 5.0
Preemergence herbicidal rating CHEAL ([5]; rate 0.0156 kg/ha): 7.0
Preemergence herbicidal rating CHEAL ([5]; rate 0.0313 kg/ha): 7.0
Preemergence herbicidal rating CHEAL ([5]; rate 0.0625 kg/ha): 9.0
Preemergence herbicidal rating CHEAL ([5]; rate 0.1250 kg/ha): 9.0
Preemergence herbicidal rating CHEAL ([5]; rate 0.2500 kg/ha): 9.0
Preemergence herbicidal rating GALAP (GALAP (Galium); rate 0.0156 kg/ha): 0.0
Preemergence herbicidal rating GALAP (GALAP (Galium); rate 0.0313 kg/ha): 0.0
Preemergence herbicidal rating GALAP (GALAP (Galium); rate 0.0625 kg/ha): 0.0
Preemergence herbicidal rating GALAP (GALAP (Galium); rate 0.1250 kg/ha): 0.0
Preemergence herbicidal rating GALAP (GALAP (Galium); rate 0.2500 kg/ha): 1.0
Preemergence herbicidal rating IPOHE ([6]; rate 0.0156 kg/ha): 0.0
Preemergence herbicidal rating IPOHE ([6]; rate 0.0313 kg/ha): 0.0
Preemergence herbicidal rating IPOHE ([6]; rate 0.0625 kg/ha): 1.0
Preemergence herbicidal rating IPOHE ([6]; rate 0.1250 kg/ha): 9.0
Preemergence herbicidal rating IPOHE ([6]; rate 0.2500 kg/ha): 9.0
Preemergence herbicidal rating ECHCG (ECHCG (Barnyardgrass) [7]; rate 0.0156 kg/ha): 0.0
Preemergence herbicidal rating ECHCG (ECHCG (Barnyardgrass) [7]; rate 0.0313 kg/ha): 0.0
Preemergence herbicidal rating ECHCG (ECHCG (Barnyardgrass) [7]; rate 0.0625 kg/ha): 0.0
Preemergence herbicidal rating ECHCG (ECHCG (Barnyardgrass) [7]; rate 0.1250 kg/ha): 0.0
Preemergence herbicidal rating ECHCG (ECHCG (Barnyardgrass) [7]; rate 0.2500 kg/ha): 1.0
Preemergence herbicidal rating ZEAMX (ZEAMX (Corn, Field); rate 0.0156 kg/ha): 1.0
Preemergence herbicidal rating ZEAMX (ZEAMX (Corn, Field); rate 0.0313 kg/ha): 1.0
Preemergence herbicidal rating ZEAMX (ZEAMX (Corn, Field); rate 0.0625 kg/ha): 0.0
Preemergence herbicidal rating ZEAMX (ZEAMX (Corn, Field); rate 0.1250 kg/ha): 2.0
Preemergence herbicidal rating ZEAMX (ZEAMX (Corn, Field); rate 0.2500 kg/ha): 1.0
